# Experimental data taken from paper PMC5011342, “A high throughput drug screening assay to identify compounds that promote oligodendrocyte differentiation using acutely dissociated and purified oligodendrocyte precursor cells” (BMC Research Notes, 2016).
# Read-outs that look alike come from different tables or passages of the source.
# Tests used:
# [1] = test system: acutely dissociated and purified rat OPCs; assay: Acute OL differentiation assay (MBP expression/cell, immunofluorescent image quantification); type: cell-based; conditions: for 2 uM (% Quet) / 10 uM (% Quet) / activation at 0.4 µM / activation at 2 µM / activation at 10 µM / activation at 0.08 µM: sheet "All OLga data"
# In short: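 This acute differentiation assay used purified rat OPCs from postnatal day 6–7 pups, seeded into PDL/laminin-coated 96-well plates in differentiation medium lacking PDGF and FGF. Compounds were applied in quadruplicate after a 1–2 h preincubation at 37 °C, 10 % CO2, with 0.1 % DMSO negative and 40 ng/ml T3 positive controls in eight wells. After fixation on DIV4, anti-MBP immunofluorescence images yielded MBP expression/cell.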
# [2] = test system: expanded OPCs; assay: cells; conditions: for viability at 0.1 µM / viability at 1 µM / viability at 10 µM: Rattus norvegicus, 72 h
# In short: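 Toxicity screen: compounds added at 0.1, 1 and 10 µM to PDGF-AA-expanded OPCs in 96-well plates, 3-day incubation at 37 °C, 10% CO2, then alamarBlue 1:10 for 4 h with fluorescence readout. Results set screening doses of 10/2, 2/0.4 or 0.4/0.08 µM.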
# [3] = test compound at 2 uM, NCC library screen, relative to quetiapine
# [4] = test compound at 10 uM, NCC library screen, relative to quetiapine
# [5] = alamarBlue viability, NCC library compound at 0.1 µM, sheet "All Tox data"
# [6] = alamarBlue viability, NCC library compound at 1 µM, sheet "All Tox data"
# [7] = alamarBlue viability, NCC library compound at 10 µM, sheet "All Tox data"
# [8] = Rattus norvegicus, 0.4 uM test compound, relative to quetiapine, read-out: OL differentiation, 0.4 uM (% Quet)
# [9] = Rattus norvegicus, 2 uM test compound, relative to quetiapine, read-out: OL differentiation, 2 uM (% Quet)
# [10] = read-out: 0.1 µM (% DMSO), alamarBlue viability of expanded OPCs, compound at 0.1 µM, sheet All Tox data
# [11] = read-out: 1 µM (% DMSO), alamarBlue viability of expanded OPCs, compound at 1 µM, sheet All Tox data
# [12] = read-out: 10 µM (% DMSO), alamarBlue viability of expanded OPCs, compound at 10 µM, sheet All Tox data
# [13] = Rattus norvegicus, 10 uM test compound, relative to quetiapine, read-out: OL differentiation, 10 uM (% Quet)
# [14] = Rattus norvegicus, test compound at 0.08 uM, MBP expression relative to quetiapine, NCC library screen, read-out: 0.08 uM (% Quet)
# [15] = Rattus norvegicus, test compound at 0.4 uM, MBP expression relative to quetiapine, NCC library screen, read-out: 0.4 uM (% Quet)
# [16] = alamarBlue viability of expanded OPCs, compound at 0.1 µM, relative to DMSO control
# [17] = alamarBlue viability of expanded OPCs, compound at 1 µM, relative to DMSO control
# [18] = alamarBlue viability of expanded OPCs, compound at 10 µM, relative to DMSO control
# [19] = read-out: 0.1 µM (% DMSO), alamarBlue viability, NCC library compound at 0.1 µM, sheet "All Tox data"
# [20] = read-out: 1 µM (% DMSO), alamarBlue viability, NCC library compound at 1 µM, sheet "All Tox data"
# [21] = read-out: 10 µM (% DMSO), alamarBlue viability, NCC library compound at 10 µM, sheet "All Tox data"
compound,measurement,setting,value
O=c1cnn([C@@H]2O[C@H](CO)[C@@H](O)[C@H]2O)c(=O)[nH]1 [Azauridine],2 uM (% Quet),[1]; [3],-8.7 % Quet
same,10 uM (% Quet),[1]; [4],-6.4 % Quet
same,0.1 µM (% DMSO),[2]; [5],94.5 % DMSO
same,1 µM (% DMSO),[2]; [6],93.6 % DMSO
same,10 µM (% DMSO),[2]; [7],80.3 % DMSO
C[C@]12C/C(=C/O)C(=O)C[C@@H]1CC[C@@H]1[C@@H]2CC[C@@]2(C)[C@H]1CC[C@]2(C)O [Oxymetholone],activation at 0.4 µM,[1]; [8],-20%
same,activation at 2 µM,[1]; [9],-31.7%
same,viability at 0.1 µM,[2]; [10],82.4%
same,viability at 1 µM,[2]; [11],79.2%
same,viability at 10 µM,[2]; [12],48.9%
Methanesulfonamide,2 uM (% Quet),[1]; [3],-6.5 % Quet
same,10 uM (% Quet),[1]; [4],5.8 % Quet
same,0.1 µM (% DMSO),[2]; [5],118.1 % DMSO
same,1 µM (% DMSO),[2]; [6],132.7 % DMSO
same,10 µM (% DMSO),[2]; [7],132.9 % DMSO
COc1ccc2c3c1O[C@H]1C[C@@H](O)C=C[C@@]31CCN(C)C2 [Galantamine],activation at 2 µM,[1]; [9],14.9%
same,activation at 10 µM,[1]; [13],16.4%
same,viability at 0.1 µM,[2]; [10],86.2%
same,viability at 1 µM,[2]; [11],81.7%
same,viability at 10 µM,[2]; [12],81.5%
Fc1ccc([C@@H]2CCNC[C@H]2COc2ccc3c(c2)OCO3)cc1 [Paroxetine],activation at 0.08 µM,"[1]; Rattus norvegicus, 0.08 uM test compound, relative to quetiapine, read-out: OL differentiation, 0.08 uM (% Quet)",16.2%
same,activation at 0.4 µM,[1]; [8],-6.1%
same,activation at 0.08 µM,[1]; [14],-4.5%
same,activation at 0.4 µM,[1]; [15],-15.9%
same,viability at 0.1 µM,[2]; [10],70.7%
same,viability at 1 µM,[2]; [11],38.3%
same,viability at 10 µM,[2]; [12],11.7%
same,0.1 µM (% DMSO),[2]; [16],63.3 % DMSO
same,1 µM (% DMSO),[2]; [17],27.9 % DMSO
same,10 µM (% DMSO),[2]; [18],8.3 % DMSO
CN(C)[C@@H]1C(O)=C(C(=O)NCN2CCCC2)C(=O)[C@@]2(O)C(O)=C3C(=O)c4c(O)cccc4[C@@](C)(O)[C@H]3C[C@@H]12 [Rolitetracycline],activation at 2 µM,"[1]; Rattus norvegicus, test compound at 2 uM, NCC library screen, relative to quetiapine, read-out: 2 uM (% Quet)",1.5%
same,activation at 10 µM,"[1]; Rattus norvegicus, test compound at 10 uM, NCC library screen, relative to quetiapine, read-out: 10 uM (% Quet)",-11.1%
same,viability at 0.1 µM,[2]; [19],94.4%
same,viability at 1 µM,[2]; [20],92.4%
same,viability at 10 µM,[2]; [21],69.8%
CC(C)[C@H](N)C(=O)OCCOCn1cnc2c(=O)[nH]c(N)nc21 [Valaciclovir],activation at 2 µM,[1]; [9],-1.4%
same,activation at 10 µM,[1]; [13],-8.7%
same,viability at 0.1 µM,[2]; [10],91.4%
same,viability at 1 µM,[2]; [11],98%
same,viability at 10 µM,[2]; [12],102%
CC[C@H]1OC(=O)[C@H](C)[C@@H](O[C@H]2C[C@@](C)(OC)[C@@H](O)[C@H](C)O2)[C@H](C)[C@@H](O[C@@H]2O[C@H](C)C[C@H](N(C)C)[C@H]2O)[C@](C)(O)C[C@@H](C)C(=O)[C@H](C)[C@@H](O)[C@]1(C)O [Erythromycin],activation at 2 µM,[1]; [9],-40.1%
same,activation at 10 µM,[1]; [13],-66.2%
same,viability at 0.1 µM,[2]; [10],93.4%
same,viability at 1 µM,[2]; [11],89.6%
same,viability at 10 µM,[2]; [12],59.1%
CCN1CCCC1CNC(=O)c1cc(S(N)(=O)=O)ccc1OC (stereo not drawn) [Sulpiride],activation at 2 µM,[1]; [9],-9.7%
same,activation at 10 µM,[1]; [13],6%
same,viability at 0.1 µM,[2]; [10],105%
same,viability at 1 µM,[2]; [11],116%
same,viability at 10 µM,[2]; [12],115%
O=C1CC2(CCCC2)CC(=O)N1CCCCN1CCN(c2ncccn2)CC1 [Buspirone],activation at 2 µM,"[1]; Rattus norvegicus, test compound at 2 uM, MBP expression relative to quetiapine, NCC library screen, read-out: 2 uM (% Quet)",11.2%
same,activation at 10 µM,"[1]; Rattus norvegicus, test compound at 10 uM, MBP expression relative to quetiapine, NCC library screen, read-out: 10 uM (% Quet)",38.1%
same,0.1 µM (% DMSO),[2]; [16],98.1 % DMSO
same,1 µM (% DMSO),[2]; [17],95.9 % DMSO
same,10 µM (% DMSO),[2]; [18],122.3 % DMSO
"O=C(c1ccc(OCCN2CCCCC2)cc1)c1c(-c2ccc(O)cc2)sc2cc(O)ccc12 [Raloxifene, reference compound]",activation at 0.08 µM,[1]; [14],91.9%
same,activation at 0.4 µM,[1]; [15],-62.1%
same,EC50,"[1]; Rattus norvegicus, average EC50 for induction of OL differentiation from independent biological replicates, eight concentrations",100 nM
same,"hit in OL differentiation assay, MRF-TMC",[1]; ● = confirmed hit in this paper's assay,●
same,0.1 µM (% DMSO),[2]; [16],161.1 % DMSO
same,1 µM (% DMSO),[2]; [17],38.6 % DMSO
same,10 µM (% DMSO),[2]; [18],7.7 % DMSO
CCOC(=O)[C@H](CCc1ccccc1)N[C@H]1CCc2ccccc2N(CC(=O)O)C1=O [Benazepril],activation at 2 µM,[1]; [9],-27.7%
same,activation at 10 µM,[1]; [13],-26.2%
same,viability at 0.1 µM,[2]; [10],84.6%
same,viability at 1 µM,[2]; [11],88.2%
same,viability at 10 µM,[2]; [12],93.6%
CCCCC1=NC2(CCCC2)C(=O)N1Cc1ccc(-c2ccccc2-c2nnn[nH]2)cc1 [Irbesartan],activation at 2 µM,[1]; [9],0.6%
same,activation at 10 µM,[1]; [13],-16.7%
same,viability at 0.1 µM,[2]; [19],88.9%
same,viability at 1 µM,[2]; [20],92.8%
same,viability at 10 µM,[2]; [21],89.7%
